Patent US20060094710A1, “Piperidine-pyridazones and phthalazones as pde4 inhibitors” (Altana Pharma AG, priority 2002, published 2006)

For COc1ccc(C2=NN(C3CCN(CCOCCN)CC3)C(=O)[C@@H]3CC=CC[C@H]23)cc1OC.Cl.Cl, which melting point is on record?
The melting point was 86 to 89 °C.

For COc1ccc(C2=NN(C3CCN(C(=O)CS(C)(=O)=O)CC3)C(=O)[C@@H]3CC=CC[C@H]23)cc1OC [Compound 1, (4aS,8aR)-4-(3,4-Dimethoxy-phenyl)-2-[1(2-methanesulfonyl-ethanoyl)-piperidin-4-yl]-4a,5,8,8a-tetrahydro-2H-phthalazin-1-one], which melting point is on record?
The melting point was 169 to 170 °C.

For COc1ccc(C2=NN(C3CCN(CC(=O)c4cc5ccccc5o4)CC3)C(=O)C3CC=CCC23)cc1OC (centres unmarked) [Compound 2], which melting point is on record?
Its melting point is 188 to 189 °C.

With COc1ccc(C2=NN(C3CCN(Cc4ccc(-n5cnc6ccccc65)cc4)CC3)C(=O)[C@@H]3CC=CC[C@H]23)cc1OC.Cl [Compound 3, (4aS,8aR)-2-[1-(4-Benzimidazol-1-yl-benzyl)-piperidin-4-yl]-4-(3,4-dimethoxy-phenyl)-4a,5,8,8a-tetrahydro-2H-phthalazin-1-one hydrochloride] as the compound, how does the melting point read?
The melting point was 147 to 149 °C.

Which melting point does the source give for COc1ccc(C2=NN(C3CCN(C(=O)CCS(=O)(=O)CCNC(=O)N4CCOCC4)CC3)C(=O)C3CC=CCC23)cc1OC (centres unmarked) [Compound 5] here?
The melting point was 118 to 121 °C.

For COCCN1CCC(N2N=C(c3ccc(OC)c(OC)c3)[C@H]3CC=CC[C@H]3C2=O)CC1.Cl [Compound 9, (4aS,8aR)-4-(3,4-Dimethoxy-phenyl)-2-[1-(2-methoxy-ethyl)-piperidin-4-yl]-4a,5,8,8a-tetrahydro-2H-phthalazin-1-one hydrochloride], which melting point is on record?
Its melting point is 87 to 90 °C.

With COc1ccc(C2=NN(C3CCN(CCS(C)(=O)=O)CC3)C(=O)[C@@H]3CC=CC[C@H]23)cc1OC.Cl [Compound 11, (4aS,8aR)-4-(3,4-Dimethoxy-phenyl)-2-[1-(2-methanesulfonyl-ethyl)-piperidin-4-yl]-4a,5,8,8a-tetrahydro-2H-phthalazin-1-one hydrochloride] as the compound, how does the melting point read?
Its melting point is 87 to 90 °C.

Which melting point does the source give for COc1ccc(C2=NN(C3CCN(C(=O)CCCOc4ccc5[nH]c(=O)ccc5c4)CC3)C(=O)CC2)cc1OC [Compound 15, 6-(4-{4-[3-(3,4-Dimethoxy-phenyl)-6-oxo-5,6-dihydro-4H-pyridazin-1-yl]-piperidin-1-yl}-4-oxo-butoxy)-1H-quinolin-2-one] here?
Its melting point is 169 to 171 °C.
